Measurements as given in patent US8859574B2 (IRM LLC, priority 2008, dated 2014).

biological target: T1, IGF-1R Ba/F3 (Homo sapiens, UniProt P08069); assay: Ba/F3 Cell Viability Inhibition Assay (IGF-1R Ba/F3); type: cell-based, murine; conditions: Tel-TK transformed Ba/F3 cells, 48 hours, Britelite luminescence
T1 construct: fused on or other part: TEL- (or BCR-) IGF-1R in Ba/F3: the kinase part holds the site
Outline: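 A 48 h compound treatment at 37 °C (3750 cells/well) was followed by Britelite luminescence to measure viability. Cells were Ba/F3 pro-B cells, IL-3-independent via TEL-fused IGF-1R kinase transduction. A logistic fit gave IC50 as 50% viability relative to DMSO control.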

T1 sequence (P08069 999-1274 limits assumed): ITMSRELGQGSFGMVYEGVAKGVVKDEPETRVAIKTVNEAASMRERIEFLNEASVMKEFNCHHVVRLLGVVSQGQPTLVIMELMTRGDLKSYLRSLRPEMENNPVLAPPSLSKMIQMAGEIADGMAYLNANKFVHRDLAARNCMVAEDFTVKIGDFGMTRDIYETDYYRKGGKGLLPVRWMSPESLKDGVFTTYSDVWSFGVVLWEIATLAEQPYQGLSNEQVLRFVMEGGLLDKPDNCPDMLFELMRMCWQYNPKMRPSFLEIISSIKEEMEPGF

| Structure (SMILES) | IC50 [nM] |
| --- | --- |
| Cc1cc(Nc2nc(Nc3cc(C)c(C4CCN(C(=O)CN5CCCCC5)CC4)cc3C)ncc2Cl)n[nH]1 [Compound 101, 1-(4-(4-(5-chloro-4-(5-methyl-1H-pyrazol-3-ylamino)pyrimidin-2-ylamino)-2,5-dimethylphenyl)piperidin-1-yl)-2-(piperidin-1-yl)ethanone] | 7 |
| Cc1cc(Nc2nc(Nc3cc(C)c(C4CCCCN4C[C@@H](O)C(F)(F)F)cc3C)ncc2Cl)n[nH]1 (stereo partly drawn) [Compound 229, (2R)-3-(2-(4-(5-chloro-4-(5-methyl-1H-pyrazol-3-ylamino)pyrimidin-2-ylamino)-2,5-dimethylphenyl)piperidin-1-yl)-1,1,1-trifluoropropan-2-ol] | 211 |
| Cc1cc(Nc2nc(Nc3cc(C)c(C4CCN(C)CC4)cc3C)ncc2Cl)n[nH]1 [Compound 6, 5-chloro-N2-(2,5-dimethyl-4-(1-methylpiperidin-4-yl)phenyl)-N4-(5-methyl-1H-pyrazol-3-yl)pyrimidine-2,4-diamine] | 15 |
| Cc1cc(Nc2nc(Nc3cc(C)c(C4CCN(C(=O)[C@@H]5COCCN5)CC4)cc3F)ncc2Cl)n[nH]1 [Compound 143, (S)-(4-(4-(5-chloro-4-(5-methyl-1H-pyrazol-3-ylamino)pyrimidin-2-ylamino)-5-fluoro-2-methylphenyl)piperidin-1-yl)(morpholin-3-yl)methanone] | 71 |
| Cc1cc(Nc2nc(Nc3cc(C)c(C4CCN(C(=O)C5(O)CC5)CC4)cc3F)ncc2Cl)n[nH]1 [Compound 192, (4-(4-(5-chloro-4-(5-methyl-1H-pyrazol-3-ylamino)pyrimidin-2-ylamino)-5-fluoro-2-methylphenyl)piperidin-1-yl)(1-hydroxycyclopropyl)methanone] | 21 |
| Cc1cc(Nc2nc(Nc3cc(C)c(C4CCCCN4C(=O)CN(C)C)cc3C)ncc2Cl)n[nH]1 (stereo not shown) [Compound 83, 1-(2-(4-(5-chloro-4-(5-methyl-1H-pyrazol-3-ylamino)pyrimidin-2-ylamino)-2,5-dimethylphenyl)piperidin-1-yl)-2-(dimethylamino)ethanone] | 13 |
| Cc1cc(Nc2nc(Nc3cc(C4CCN(CCC(F)(F)F)CC4)c(F)cc3C)ncc2Cl)n[nH]1 [Compound 28, 5-chloro-N2-(4-fluoro-2-methyl-5-(1-(3,3,3-trifluoropropyl)piperidin-4-yl)phenyl)-N4-(5-methyl-1H-pyrazol-3-yl)pyrimidine-2,4-diamine] | 5460 |
| Cc1cc(Nc2nc(Nc3cc(C)c(C4CCN(C(=O)c5nc(C)oc5C(F)(F)F)CC4)cc3F)ncc2Cl)n[nH]1 [Compound 141, (4-(4-(5-chloro-4-(5-methyl-1H-pyrazol-3-ylamino)pyrimidin-2-ylamino)-5-fluoro-2-methylphenyl)piperidin-1-yl)(2-methyl-5-(trifluoromethyl)oxazol-4-yl)methanone] | 69 |
| Cc1cc(Nc2nc(Nc3cc(Cl)c(C4CCN(C(=O)CN5CCOCC5)CC4)cc3C)ncc2Cl)n[nH]1 [Compound 95, 1-(4-(2-chloro-4-(5-chloro-4-(5-methyl-1H-pyrazol-3-ylamino)pyrimidin-2-ylamino)-5-methylphenyl)piperidin-1-yl)-2-morpholinoethanone] | 6 |
| Cc1cc(Nc2nc(Nc3cc(C)c(C4CCN(C(=O)C5(N(C)C)CCC5)CC4)cc3C)ncc2Cl)n[nH]1 [Compound 92, (4-(4-(5-chloro-4-(5-methyl-1H-pyrazol-3-ylamino)pyrimidin-2-ylamino)-2,5-dimethylphenyl)piperidin-1-yl)(1-(dimethylamino)cyclobutyl)methanone] | 15 |
| Cc1cc(Nc2nc(Nc3cc(C)c(C4CCN(CCS(=O)(=O)N5CCC5)CC4)cc3F)ncc2Cl)n[nH]1 [Compound 61, N2-(4-(1-(2-(azetidin-1-ylsulfonyl)ethyl)piperidin-4-yl)-2-fluoro-5-methylphenyl)-5-chloro-N4-(5-methyl-1H-pyrazol-3-yl)pyrimidine-2,4-diamine] | 56 |
| CCc1noc(CN2CCC(c3cc(C)c(Nc4ncc(Cl)c(Nc5cc(C)[nH]n5)n4)cc3C)CC2)n1 [Compound 303, 5-chloro-N2-(4-(1-((3-ethyl-1,2,4-oxadiazol-5-yl)methyl)piperidin-4-yl)-2,5-dimethylphenyl)-N4-(5-methyl-1H-pyrazol-3-yl)pyrimidine-2,4-diamine] | 6 |
| CCc1cc(Nc2nc(Nc3cc(C)c(C4CCN(CC(N)=O)CC4)cc3F)ncc2Cl)n[nH]1 [Compound 263, 2-(4-(4-(5-chloro-4-(5-ethyl-1H-pyrazol-3-ylamino)pyrimidin-2-ylamino)-5-fluoro-2-methylphenyl)piperidin-1-yl)acetamide] | 33 |
| Cc1cc(Nc2nc(Nc3cc(C)c(C4CCN(C(=O)N(C)C)CC4)cc3F)ncc2Cl)n[nH]1 [Compound 69, 4-(4-(5-Chloro-4-(5-methyl-1H-pyrazol-3-ylamino)pyrimidin-2-ylamino)-5-fluoro-2-methylphenyl)-N,N-dimethylpiperidine-1-carboxamide] | 11 |
| Cc1cc(Nc2nc(Nc3cc(C)c(C4CCN(CCCS(=O)(=O)N5CCC5)CC4)cc3F)ncc2Cl)n[nH]1 [Compound 243, N2-(4-(1-(3-(azetidin-1-ylsulfonyl)propyl)piperidin-4-yl)-2-fluoro-5-methylphenyl)-5-chloro-N4-(5-methyl-1H-pyrazol-3-yl)pyrimidine-2,4-diamine] | 76 |
| Cc1cc(Nc2nc(Nc3cc(C)c(C4CCN(C(=O)CCN5CCCC5)CC4)cc3C)ncc2Cl)n[nH]1 [Compound 226, 1-(4-(4-(5-chloro-4-(5-methyl-1H-pyrazol-3-ylamino)pyrimidin-2-ylamino)-2,5-dimethylphenyl)piperidin-1-yl)-3-(pyrrolidin-1-yl)propan-1-one] | 61 |

| Structure (SMILES) | IC50 [nM] |
| --- | --- |
| Cc1cc(Nc2nc(Nc3cc(C)c(C4CCN(CCC(=O)NC5CC5)CC4)cc3F)ncc2Cl)n[nH]1 [Compound 247, 3-(4-(4-(5-chloro-4-(5-methyl-1H-pyrazol-3-ylamino)pyrimidin-2-ylamino)-5-fluoro-2-methylphenyl)piperidin-1-yl)-N-cyclopropylpropanamide] | 62 |
| Cc1cc(Nc2nc(Nc3cc(C)c(C4CCN(C)CC4)cc3OC(C)C)ncc2Cl)n[nH]1 [Compound 3, 5-chloro-N2-(2-isopropoxy-5-methyl-4-(1-methylpiperidin-4-yl)phenyl)-N4-(5-methyl-1H-pyrazol-3-yl)pyrimidine-2,4-diamine] | 104 |
| Cc1cc(Nc2nc(Nc3cc(C)c(C4CCN(C(=O)[C@@H]5CCCN5)CC4)cc3F)ncc2Cl)n[nH]1 [Compound 116, (S)-(4-(4-(5-chloro-4-(5-methyl-1H-pyrazol-3-ylamino)pyrimidin-2-ylamino)-5-fluoro-2-methylphenyl)piperidin-1-yl)(pyrrolidin-2-yl)methanone] | 137 |
| CNC(=O)CN1CCC[C@H](c2cc(C)c(Nc3ncc(Cl)c(Nc4cc(C)[nH]n4)n3)cc2C)C1 (single isomer, unassigned) [Compound 207] | 26 |
| Cc1cc(Nc2nc(Nc3cc(C)c(C4CCN(S(C)(=O)=O)CC4)cc3C)ncc2Cl)n[nH]1 [Compound 63, 5-chloro-N2-(2,5-dimethyl-4-(1-(methylsulfonyl)piperidin-4-yl)phenyl)-N4-(5-methyl-1H-pyrazol-3-yl)pyrimidine-2,4-diamine] | 2 |
| Cc1cc(Nc2nc(Nc3cc(C)c([C@@H]4COC(=O)N4)cc3C)ncc2Cl)n[nH]1 [Compound 231, (R)-4-(4-(5-chloro-4-(5-methyl-1H-pyrazol-3-ylamino)pyrimidin-2-ylamino)-2,5-dimethylphenyl)oxazolidin-2-one] | 50 |
| CC(=O)N1CCC(c2cc(C)c(Nc3ncc(Cl)c(Nc4cc(C)[nH]n4)n3)cc2C)CC1 [Compound 110, 1-(4-(4-(5-chloro-4-(5-methyl-1H-pyrazol-3-ylamino)pyrimidin-2-ylamino)-2,5-dimethylphenyl)piperidin-1-yl)ethanone] | 13 |
| Cc1cc(Nc2nc(Nc3cc(C)c(C4CNC4)cc3C)ncc2Cl)n[nH]1 [Compound 237, N2-(4-(azetidin-3-yl)-2,5-dimethylphenyl)-5-chloro-N4-(5-methyl-1H-pyrazol-3-yl)pyrimidine-2,4-diamine] | 410 |
| CC(=O)N1CCC(C(=O)N2CCC(c3cc(F)c(Nc4ncc(Cl)c(Nc5cc(C)[nH]n5)n4)cc3C)CC2)CC1 [Compound 114] | 48 |
| Cc1cc(Nc2ncc(Cl)c(N[C@H]3CCCCNC3=O)n2)c(F)cc1C1CCN(C)CC1 (single isomer, unassigned) [Compound 10] | 869 |
| Cc1cc(Nc2nc(Nc3cc(C)c(C4CCN(C(N)=O)CC4)cc3C)ncc2Cl)n[nH]1 [Compound 72, 4-(4-(5-chloro-4-(5-methyl-1H-pyrazol-3-ylamino)pyrimidin-2-ylamino)-2,5-dimethylphenyl)piperidine-1-carboxamide] | 6 |
| Cc1cc(Nc2nc(Nc3cc(C)c(C4CCNCC4)cc3C)ncc2C(F)(F)F)n[nH]1 [Compound 257, N^2-(2,5-dimethyl-4-(piperidin-4-yl)phenyl)-N^4-(5-methyl-1H-pyrazol-3-yl)-5-(trifluoromethyl)pyrimidine-2,4-diamine] | 64 |
| Cc1cc(Nc2nc(Nc3cc(C)c(C4CCNC(C)C4)cc3F)ncc2Cl)n[nH]1 (stereo not shown) [Compound 273, 5-chloro-N2-(2-fluoro-5-methyl-4-(2-methylpiperidin-4-yl)phenyl)-N4-(5-methyl-1H-pyrazol-3-yl)pyrimidine-2,4-diamine] | 18 |
| Cc1cc(Nc2nc(Nc3cc(C(F)(F)F)c(N4CCN(C)CC4)cc3F)ncc2Cl)n[nH]1 [Compound 157, 5-chloro-N^2-(2-fluoro-4-(4-methylpiperazin-1-yl)-5-(trifluoromethyl)phenyl)-N^4-(5-methyl-1H-pyrazol-3-yl)pyrimidine-2,4-diamine] | 75 |
| Cc1cc(Nc2nc(Nc3cc(C(F)(F)F)c(C4CCNCC4)cc3C)ncc2Cl)n[nH]1 [Compound 254, 5-chloro-N4-(5-methyl-1H-pyrazol-3-yl)-N2-(2-methyl-4-(piperidin-4-yl)-5-(trifluoromethyl)phenyl)pyrimidine-2,4-diamine] | 70 |
